Test results taken from patent US20030199694A1, “Thermally stable trimetrexates and processes for producing the same” (MedImmune Oncology, Inc., priority 1998, published 2003).

Tests used:
[1] = tested on: murine cell lines such as L1210, L5178Y, S-180, W-256; settings: cited from earlier work
[2] = cited from earlier work
[3] = Thermal stability of TMH relative to anhydrous trimetrexate: storage at 25° C. or 50° C., HPLC assay, impurities and moisture; format: physicochemical
Experimental: Samples of trimetrexate monohydrate and anhydrous trimetrexate were analyzed to compare the thermal stability of anhydrous trimetrexate with the trimetrexate monohydrate of the present invention. Anhydrous trimetrexate was prepared by dehydrating trimetrexate monohydrate. A sample of trimetrexate monohydrate (about 30 g) was placed in a Petri dish and dried in a vacuum dessicator over phosphorus pentoxide. The sample was dried at a pressure of about 100 microns for 6 days. The following procedure was used to assay the purity of trimetrexate monohydrate and anhydrous trimetrexate samples. Samples of the compounds were analyzed by HPLC. The mobile phase is prepared by first dissolving 5 g of sodium dodecyl sulfate (Aldrich 86,201-0 or equivalent) in 1100 mL water and adjusting the pH to 3.0 with glacial acetic acid (about 5 mL). 825 mL of HPLC grade acetonitrile is then added, and the solution mixed thoroughly, while avoiding excessive foaming. The unfiltered solution is then degassed by sonicating for 5 minutes. The solution is degassed immediately before use, and at the beginning of each day. Duplicate standard solutions are prepared with a trimetrexate reference compound at a concentration of 0.2 mg/mL in the mobile phase solution (“STD-1” and “STD-2”). The standard solutions are stored under refrigeration when not in use, and fresh solutions are prepared daily. Sample solutions of anhydrous trimetrexate and trimetrexate monohydrate are also prepared at 0.2 mg/mL in the mobile phase solution. The system is checked before testing the sample solutions by analyzing the reproducibility of trimetrexate peak area measurements for six injections of the standard trimetrexate solution (STD-1), trimetrexate peak symmetry, and agreement between the duplicate standard preparations. The acceptance criteria are as follows: For assay data, the HPLC operating parameters are as follows: [table] For the determination of impurities, the operating parameters are as before, except that the run time is extended to 30 minutes to detect all possible impurities and/or degradation products, and an attenuation of 32 is used. A mobile phase blank is first run, followed by a sample solution. Purity (%w/w)=[(mg found×100%)+mg sample weighed)]×[…] Peak Area (%)=[peak area (imp)÷(Σpeak area (all impurities+TMTX))]×100. Samples of the anhydrous and monohydrate compounds were initially assayed for purity and moisture content. The samples were stored for 4 weeks at either 25° C. or 50° C. HPLC chromatograms were recorded for the samples stored at each temperature after 3 days, 1 week, 2 weeks and 4 weeks of storage, and the samples assayed at each time interval for purity, impurities and water content. […] The peak at about 13 minutes corresponds to the non-degraded compound; this peak is truncated in the Figure in order to expand the y-axis to view the impurities. […] The “amine” entry in Table 9 corresponds to the amine degradation product which is prominent in FIG. 7 as the large peak at about 20 minutes in the anhydrous sample. This degradation product was isolated and identified as 6-aminomethyl-5-methyl-2,4-quinazolinediamine. It is a pale yellow powder, with a molecular formula of C10H13N5 and a formula weight of 203.25 g/mol. The structure of the compound is shown below [drawing 11]

[4] = tested on: murine tumors such as B16 melanoma, colon 26 and 38, L1210 and p388 leukemia and CD8F mammary tumors; settings: cited from earlier work
[5] = tested on: human tumor cells lines derived from breast, colon, lung, ovary, renal and melanoma cells; settings: human tumor cell lines from breast; cited from earlier work
Hygroscopicity = format: physicochemical
[6] = at 37° C.; cited from earlier work
[7] = stored at 25° C., 1 week, monohydrate
[8] = stored at 25° C., 2 weeks, monohydrate
[9] = stored at 25° C., 4 weeks, monohydrate
[10] = stored at 25° C., 3 days, monohydrate
[11] = stored at 50° C., 1 week, monohydrate
[12] = stored at 50° C., 2 weeks, monohydrate
[13] = stored at 50° C., 4 weeks, monohydrate
[14] = stored at 50° C., 3 days, monohydrate

COc1cc(NCc2ccc3nc(N)nc(N)c3c2C)cc(OC)c1OC [Anhydrous, 2,4-diamino-5-methyl-6-[(3,4,5-trimethoxyanilino)methyl] quinazoline]
antitumor activity in vitro [1]: antitumor activity
water solubility [2]: < 0.1 mg/mL
% Moisture ([3]; Initial): 0.1%
Assay ([3]; Initial, before storage, HPLC purity): 98.5 w/w
Total Impurities ([3]; Initial, HPLC): 0.3 % area
Amine ([3]; Initial, degradation product 6-aminomethyl-5-methyl-2,4-quinazolinediamine, HPLC): 0.2 % area
% Moisture ([3]; stored at 25° C., 1 week): 0.4%
Amine ([3]; stored at 25° C., 1 week): 0.3 % area
Assay ([3]; stored at 25° C., 1 week): 96.6 w/w
Total Impurities ([3]; stored at 25° C., 1 week): 0.4 % area
% Moisture ([3]; stored at 25° C., 2 weeks): 0.2%
Amine ([3]; stored at 25° C., 2 weeks): 0.4 % area
Assay ([3]; stored at 25° C., 2 weeks): 98.4 w/w
Total Impurities ([3]; stored at 25° C., 2 weeks): 0.5 % area
% Moisture ([3]; stored at 25° C., 4 weeks): <0.1%
Amine ([3]; stored at 25° C., 4 weeks): 0.8 % area
Assay ([3]; stored at 25° C., 4 weeks): 97.6 w/w
Total Impurities ([3]; stored at 25° C., 4 weeks): 1.0 % area
% Moisture ([3]; stored at 25° C., 3 days): 0.3%
Amine ([3]; stored at 25° C., 3 days): 0.2 % area
Assay ([3]; stored at 25° C., 3 days): 100.4 w/w
Total Impurities ([3]; stored at 25° C., 3 days): 0.4 % area
% Moisture ([3]; stored at 50° C., 1 week): 0.7%
Amine ([3]; stored at 50° C., 1 week): 0.7 % area
Assay ([3]; stored at 50° C., 1 week): 95.0 w/w
Total Impurities ([3]; stored at 50° C., 1 week): 1.2 % area
% Moisture ([3]; stored at 50° C., 2 weeks): 0.3%
Amine ([3]; stored at 50° C., 2 weeks): 1.4 % area
Assay ([3]; stored at 50° C., 2 weeks): 95.8 w/w
Total Impurities ([3]; stored at 50° C., 2 weeks): 2.1 % area
% Moisture ([3]; stored at 50° C., 4 weeks): <0.1%
Amine ([3]; stored at 50° C., 4 weeks): 2.9 % area
Assay ([3]; stored at 50° C., 4 weeks): 92.7 w/w
Total Impurities ([3]; stored at 50° C., 4 weeks): 4.5 % area
% Moisture ([3]; stored at 50° C., 3 days): 0.4%
Amine ([3]; stored at 50° C., 3 days): 0.4 % area
Assay ([3]; stored at 50° C., 3 days): 99.5 w/w
Total Impurities ([3]; stored at 50° C., 3 days): 0.7 % area
therapeutic utility in vivo [4]: therapeutic utility
antitumor activity in vitro [5]: antitumor activity

COc1cc(NCc2ccc3nc(N)nc(N)c3c2C)cc(OC)c1OC [Monohydrate, trimetrexate monohydrate]
hygroscopicity (Hygroscopicity): non-hygroscopic
Assay ([3]; Initial, before storage, HPLC purity, monohydrate): 99.6 w/w
Total Impurities ([3]; Initial, HPLC, monohydrate): 0.2 % area
Amine ([3]; Initial, degradation product 6-aminomethyl-5-methyl-2,4-quinazolinediamine, HPLC, monohydrate): 0.1 % area
% Moisture ([3]; Initial, monohydrate): 4.9%
degradation products in HPLC chromatogram ([3]; after 4 weeks at 50° C., FIG. 7): no significant degradation products
% Moisture [3, 7]: 4.5%
Amine [3, 7]: 0.1 % area
Assay [3, 7]: 96.3 w/w
Total Impurities [3, 7]: 0.1 % area
% Moisture [3, 8]: 4.9%
Amine [3, 8]: 0.1 % area
Assay [3, 8]: 99.4 w/w
Total Impurities [3, 8]: 0.1 % area
% Moisture [3, 9]: 4.3%
Amine [3, 9]: 0.1 % area
Assay [3, 9]: 99.6 w/w
Total Impurities [3, 9]: 0.3 % area
% Moisture [3, 10]: 4.7%
Amine [3, 10]: 0.1 % area
Assay [3, 10]: 101.4 w/w
Total Impurities [3, 10]: 0.2 % area
% Moisture [3, 11]: 4.6%
Amine [3, 11]: 0.1 % area
Assay [3, 11]: 98.6 w/w
Total Impurities [3, 11]: 0.2 % area
% Moisture [3, 12]: 4.8%
Amine [3, 12]: 0.1 % area
Assay [3, 12]: 98.7 w/w
Total Impurities [3, 12]: 0.1 % area
% Moisture [3, 13]: 4.4%
Amine [3, 13]: 0.2 % area
Assay [3, 13]: 99.6 w/w
Total Impurities [3, 13]: 0.3 % area
% Moisture [3, 14]: 4.7%
Amine [3, 14]: 0.1 % area
Assay [3, 14]: 99.4 w/w
Total Impurities [3, 14]: 0.3 % area

COc1cc(NCc2ccc3nc(N)nc(N)c3c2C)cc(OC)c1OC.O=C(O)[C@H]1O[C@H](O)[C@H](O)[C@@H](O)[C@@H]1O [trimetrexate glucuronate]
water solubility [2]: > 50 mg/mL
half-life in solution [6]: 51.6 ± 0.8 days
